Columns and labels:
ROS1 = ROS1 (Homo sapiens, UniProt P08922); experiment: In vitro biochemical and/or cellular kinase assays
KIT = KIT (Homo sapiens, UniProt P10721); experiment: In vitro biochemical and/or cellular kinase assays
CYP2C19 = CYP2C19 (Homo sapiens, UniProt P33261); experiment: Metabolic pathways in vitro: effect of CYP inhibition on cabozantinib metabolite formation; type: in vitro ADME
CYP2C8 = CYP2C8 (Homo sapiens, UniProt P10632); experiment: In vitro CYP inhibition by cabozantinib; type: in vitro ADME
Chain of CYP2C8 (P10632 whole entry): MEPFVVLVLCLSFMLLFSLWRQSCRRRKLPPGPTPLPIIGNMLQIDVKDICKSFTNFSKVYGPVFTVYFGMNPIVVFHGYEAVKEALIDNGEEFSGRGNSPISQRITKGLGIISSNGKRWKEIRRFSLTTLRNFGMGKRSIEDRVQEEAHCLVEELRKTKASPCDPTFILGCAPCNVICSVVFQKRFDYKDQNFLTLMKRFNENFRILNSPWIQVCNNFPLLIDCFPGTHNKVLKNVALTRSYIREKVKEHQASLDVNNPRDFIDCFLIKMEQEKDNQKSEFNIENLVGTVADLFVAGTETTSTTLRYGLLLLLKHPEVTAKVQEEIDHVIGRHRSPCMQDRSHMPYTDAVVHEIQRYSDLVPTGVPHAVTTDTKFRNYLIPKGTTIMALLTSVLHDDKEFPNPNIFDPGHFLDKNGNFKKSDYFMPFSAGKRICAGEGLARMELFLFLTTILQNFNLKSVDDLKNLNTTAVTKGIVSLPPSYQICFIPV

P-gp = P-gp (Homo sapiens, UniProt P08183); experiment: Drug transporter systems in vitro; type: in vitro ADME
Chain of P-gp (P08183 whole entry): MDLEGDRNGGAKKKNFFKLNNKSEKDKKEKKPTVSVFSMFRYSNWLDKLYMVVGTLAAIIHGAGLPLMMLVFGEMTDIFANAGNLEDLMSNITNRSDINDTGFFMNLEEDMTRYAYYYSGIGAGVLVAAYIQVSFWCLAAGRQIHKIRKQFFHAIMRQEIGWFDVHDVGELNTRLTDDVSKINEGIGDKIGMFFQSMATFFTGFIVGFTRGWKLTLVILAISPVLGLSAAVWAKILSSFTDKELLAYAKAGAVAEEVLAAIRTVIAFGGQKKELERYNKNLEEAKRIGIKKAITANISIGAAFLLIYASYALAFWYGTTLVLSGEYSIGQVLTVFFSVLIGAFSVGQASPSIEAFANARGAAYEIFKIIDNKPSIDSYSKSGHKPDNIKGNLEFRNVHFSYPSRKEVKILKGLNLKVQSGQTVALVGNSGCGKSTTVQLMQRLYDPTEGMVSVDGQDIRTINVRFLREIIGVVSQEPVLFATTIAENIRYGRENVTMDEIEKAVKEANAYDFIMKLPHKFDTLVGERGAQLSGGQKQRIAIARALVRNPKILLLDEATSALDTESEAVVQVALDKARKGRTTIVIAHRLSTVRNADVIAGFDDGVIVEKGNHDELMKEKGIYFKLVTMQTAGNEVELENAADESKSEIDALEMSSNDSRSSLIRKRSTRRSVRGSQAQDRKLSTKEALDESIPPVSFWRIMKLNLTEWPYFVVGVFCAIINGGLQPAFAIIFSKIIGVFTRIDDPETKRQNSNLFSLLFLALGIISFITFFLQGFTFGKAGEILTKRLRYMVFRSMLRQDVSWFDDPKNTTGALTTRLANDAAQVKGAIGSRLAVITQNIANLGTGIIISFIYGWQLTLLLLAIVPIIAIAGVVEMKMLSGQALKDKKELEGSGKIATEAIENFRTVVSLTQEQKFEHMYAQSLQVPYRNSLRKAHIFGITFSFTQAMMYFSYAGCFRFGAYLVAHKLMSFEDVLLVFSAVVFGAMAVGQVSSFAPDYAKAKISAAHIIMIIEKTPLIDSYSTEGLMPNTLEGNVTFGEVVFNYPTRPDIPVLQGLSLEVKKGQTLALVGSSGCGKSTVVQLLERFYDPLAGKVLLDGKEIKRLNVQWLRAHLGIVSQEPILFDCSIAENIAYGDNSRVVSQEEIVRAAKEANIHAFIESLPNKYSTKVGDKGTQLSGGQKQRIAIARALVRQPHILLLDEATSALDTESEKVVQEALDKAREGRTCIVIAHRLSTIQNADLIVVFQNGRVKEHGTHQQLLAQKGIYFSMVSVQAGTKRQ

male and female rats = conditions: rat, in vivo

Chain of KIT (P10721 26-976): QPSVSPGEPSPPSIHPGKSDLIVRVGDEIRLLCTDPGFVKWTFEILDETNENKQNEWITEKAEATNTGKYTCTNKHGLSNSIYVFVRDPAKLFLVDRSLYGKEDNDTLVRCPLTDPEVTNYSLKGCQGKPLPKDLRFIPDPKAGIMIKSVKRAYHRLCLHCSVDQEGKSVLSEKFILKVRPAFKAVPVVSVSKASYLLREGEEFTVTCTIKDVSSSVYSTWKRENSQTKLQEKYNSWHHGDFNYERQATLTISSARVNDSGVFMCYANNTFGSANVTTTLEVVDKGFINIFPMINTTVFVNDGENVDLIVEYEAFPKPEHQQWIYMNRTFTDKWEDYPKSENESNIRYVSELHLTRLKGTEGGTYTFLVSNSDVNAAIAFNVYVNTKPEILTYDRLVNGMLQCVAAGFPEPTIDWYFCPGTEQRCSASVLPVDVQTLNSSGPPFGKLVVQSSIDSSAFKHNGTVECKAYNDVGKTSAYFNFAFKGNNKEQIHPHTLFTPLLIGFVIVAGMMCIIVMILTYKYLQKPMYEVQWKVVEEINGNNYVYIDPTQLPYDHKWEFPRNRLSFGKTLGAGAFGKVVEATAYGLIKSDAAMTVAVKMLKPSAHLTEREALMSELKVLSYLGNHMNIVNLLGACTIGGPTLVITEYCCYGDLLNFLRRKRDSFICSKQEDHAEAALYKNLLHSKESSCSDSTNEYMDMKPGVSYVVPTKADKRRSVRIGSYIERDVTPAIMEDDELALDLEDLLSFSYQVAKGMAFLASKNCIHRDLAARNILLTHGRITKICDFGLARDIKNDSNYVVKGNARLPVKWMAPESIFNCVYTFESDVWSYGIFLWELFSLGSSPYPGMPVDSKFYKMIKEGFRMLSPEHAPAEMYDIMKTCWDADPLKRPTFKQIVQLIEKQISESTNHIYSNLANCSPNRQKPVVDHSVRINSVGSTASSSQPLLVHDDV
Chain of CYP2C19 (P33261 whole entry): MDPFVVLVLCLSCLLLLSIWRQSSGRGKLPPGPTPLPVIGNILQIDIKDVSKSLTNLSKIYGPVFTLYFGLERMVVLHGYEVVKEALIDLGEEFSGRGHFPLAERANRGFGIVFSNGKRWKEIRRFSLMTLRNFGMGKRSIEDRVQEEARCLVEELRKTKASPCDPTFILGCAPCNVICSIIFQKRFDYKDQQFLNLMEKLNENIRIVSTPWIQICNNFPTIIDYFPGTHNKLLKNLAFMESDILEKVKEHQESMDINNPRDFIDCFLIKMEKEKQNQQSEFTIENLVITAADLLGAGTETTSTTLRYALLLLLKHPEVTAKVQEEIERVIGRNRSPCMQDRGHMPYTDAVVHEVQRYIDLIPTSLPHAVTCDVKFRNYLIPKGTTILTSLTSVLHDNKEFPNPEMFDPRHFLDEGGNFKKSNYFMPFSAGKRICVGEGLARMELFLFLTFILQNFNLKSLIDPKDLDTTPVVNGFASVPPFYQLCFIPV

COc1cc2nccc(Oc3ccc(NC(=O)C4(C(=O)Nc5ccc(F)cc5)CC4)cc3)c2cc1OC [cabozantinib]
Inhibition of tyrosine kinase activity (ROS1): inhibits
Inhibition of tyrosine kinase activity (KIT): inhibits
Effect of inhibition of CYP2C19 on cabozantinib metabolite formation (CYP2C19): no effect
Inhibition of CYP2C8 in vitro (CYP2C8): inhibitor
Inhibition of P-gp transport activities (P-gp): inhibitor
P-gp substrate status (P-gp): not a substrate
Doses at which female fertility was significantly reduced (male and female rats; female): ≥ 1 mg/kg/day
Doses at which male fertility was significantly compromised (male and female rats; male): ≥ 2.5 mg/kg/day
